Results on three molecules are retold here after US12552757B2, “NRF2-activating compound” (SENJU PHARMACEUTICAL CO., LTD., priority 2019, dated 2026).

Data set [1] can be described thus: Measurement of metabolic stability in human liver microsomes. The conditions noted are these: residual ratio of test compound after 30 minutes at 37° C. with human liver microsome, LC/MS/MS. It counts as in vitro ADME. In a few lines:
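Compound was diluted to 200 nmol/L in 6.5 mmol/L NADPH solution (pre-mix levels) and incubated with an equal volume of 0.2 mg protein/mL pooled mixed-gender human liver microsomes for 30 min at 37° C, then quenched with methanol. LC/MS/MS peak areas gave % remaining versus a sample quenched before microsome addition.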
(Liver microsomes are a subcellular fraction often used to study metabolism.)

The subject of data set [2] is NRF2. In words: Measurement 2 of Nrf2 activating action (reporter assay) in HCE-T/ARE-Luc cells. The settings on record: 50% activation concentration, culture for 24 hours. It is filed as cell-based. As for the experimental part:
The NRF2 activating action of the compounds on cells was measured by a reporter gene assay. pGL4.37[luc2P/ARE/Hygro](Promega) was introduced into HCE-T cells using FuGENE HD. Cells that acquired drug resistance as a result of transduction were screened by culture in the presence of 50 μg/mL hygromycin, and a clone strain, HCE-T/ARE-Luc, was established.
HCE-T/ARE-Luc was cultured using DMEM/F12, 10 ng/mL hEGF, 5 μg/mL insulin, and 5% FBS. Phenol red-free DMEM/F12 was used as the assay medium.
HCE-T/ARE-Luc was seeded in a 96-well polystyrene microplate (FALCON) with 10000 cells per well. The cells were incubated in a CO: incubator at 37° C. for 16 hours to allow for cell adhesion. The test substance was dissolved in dimethylsulfoxide to prepare a solution at a concentration 1000 times higher than the test concentration. The test substance diluted 1000-fold in the assay medium was added, followed by culture for 24 hours. When measuring the activity of the reporter, the medium containing the test substance was removed, and then a new medium and a substrate of ONE-GloEX Luciferase Assay System (Promega) were added. The plate was shaken for 1 minute and then allowed to stand at ordinary temperature for 10 minutes, and luminescence was detected using the GloMax Discover System.
The 50% activation concentration of each test substance was calculated by creating a calibration curve between two concentrations across the luminescence intensity of 50%.
(In general: In a reporter assay the amount or activity of a reporter protein is the signal.)

For the molecule `CC[C@@H]1CN(Cc2cc(C(c3cc(OC)c(C(C)=O)s3)C(C)C(=O)O)ccc2C)S(=O)(=O)c2cnccc2O1` (stereo partly drawn) [Compound 51, 3-(5-acetyl-4-methoxythiophen-2-yl)-3-(3-{[(R)-4-ethyl-1,1-dioxide-3,4-dihydro-2H-pyrido[4,3-b][1,4,5]oxathiazepin-2-yl]methyl}-4-methylphenyl)-2-methylpropanoic acid], in data set [1], the “Metabolic stability*” value came out at 50%. In data set [2], this molecule registered an EC50 of 7.47 nM.

With `CC[C@@H]1CN(Cc2cc(C(c3cc(OC)c(C(C)=O)s3)C(C)(C)C(=O)O)ccc2C)S(=O)(=O)c2ccccc2O1` (stereo partly drawn) [Compound 4, 3-(5-acetyl-4-methoxythiophen-2-yl)-3-(3-{[(R)-4-ethyl-1,1-dioxide-3,4-dihydro-2H-benzo[b][1,4,5]oxathiazepin-2-yl]methyl}-4-methylphenyl)-2,2-dimethylpropanoic acid], in data set [1], the “Metabolic stability*” value amounted to 48%. The same molecule had an EC50 in data set [2] of 7.17 nM.

`CC[C@@H]1CN(Cc2cc(C(c3cc(C)c(C(C)=O)s3)C(C)C(=O)O)ccc2C)S(=O)(=O)c2ccccc2O1` (stereo partly drawn) [Compound 2, 3-(5-acetyl-4-methylthiophen-2-yl)-3-(3-{[(R)-4-ethyl-1,1-dioxide-3,4-dihydro-2H-benzo[b][1,4,5]oxathiazepin-2-yl]methyl}-4-methylphenyl)-2-methylpropanoic acid]: in data set [1], the “Metabolic stability*” value is 21%. In addition, the EC50 in data set [2] came to 9 nM.
